# Patent publication US20190350890A1, “COMPOSITION FOR PREVENTING OR TREATING HEPATITIS CONTAINING MONOACETYL DIACYLGLYCEROL COMPOUND” (ENZYCHEM LIFESCIENCES CORPORATION, priority 2016, published 2019)
# Experiments:
# STAT6 [1] = experiment: Western blot assay, IL-4-induced STAT6 phosphorylation in Hep3B cells; format: cell-based; conditions: for phosphorylation of STAT6, comparison of PLAG and PLG: Hep3B cells, anti-phospho-STAT6 Western blot
# Protocol: (§1) Hep3B cells were plated in 12 well plates (2.5×10^5 cells/well) and treated with PLAG at various concentrations (0.1, 1, 10, 100 ug/mL), and after 2 hours, activated with IL-4 for 1 hour. Whole protein extracts were immunoblotted with phospho-STAT6, STAT6, phospho-JAK1 and phosphor-PKCξ/λ Abs (cell signaling).
# STAT6 [2] = experiment: Luciferase reporter gene analysis, STAT6 transcriptional activity in HepG2 and Hep3B cells; format: cell-based; conditions: 10 and 100 ug/ml of PLAG; 10 ng/ml IL-4 for 6 hours
# Protocol: HepG2 and Hep3B cells were transfected into reporter luciferase plasmids containing four pairs of STAT6 binding sites (p4xSTAT6-Luc2P; Addgene, Cambridge, Mass.), and the reporter vector was transfected into the Attractene reagent and cell line. For the activity of STAT6 reporter vectors, 10 ng/ml of IL-4 was treated with cells for 6 hours, and the luciferase activity was measured by a luminometer using a luciferase assay system. The luciferase activity of each sample was normalized to those corresponding to the PLAG transduced samples.
# HL-60 cells [3] = experiment: WST assay, cytotoxicity in HL-60 cells; format: cell-based; conditions: 24 hours of incubation, PLAG 1,000 ug/mL or greater
# Protocol: (§2) FIG. 7 is a graph showing the results of WST assay of […] depending on the dose of PLAG when the composition of the present invention was administered, and FIG. 8 is a graph showing the inhibitory effect of IL-4-induced STAT6 activity and related signaling mechanism depending on the dose of PLAG when the composition of the present invention was administered. […] HepG2 and Hep3B were used as liver cells, and HL-60 was used as neutrophil cells. Cytotoxicity of EC-18 in liver cells and leukocytes was confirmed by WST assay. Survival of Hep3B and HL-60 cells was not affected during 24 hours of incubation with PLAG each having a concentration of 1,000 ug/mL or greater (see FIG. 7). Based on the results of the WST assay, 100, 10, and 1 ug/mL of PLAG were used for the cells. The activities of PKC-ξ/λ, JAK1 and STAT6 played an important role in ConA-induced hepatitis, and these kinases were increased by IL-4. […] Therefore, it can be seen that PLAG can effectively control IL-4-induced hepatitis by alleviating PKC-ξ/λ activity.
# PKCδ = experiment: Western blot assay, phospho-PKC isotypes in HL-60 cells: PKCδ; format: cell-based; conditions: IL-4 stimulation
# Protocol: (§3) HL-60 cells were plated in 12-well plates (1×10^6/well) and treated as described above. Total protein extracts were immunoblotted with phospho-PKC homologous proteins (δ, θ, ξ/λ, α/β) (Cell Signaling) and GAPDH Abs (Santa Cruz Biotechnology Inc., CA). Detection was performed using Immobilon Western Chemiluminescent HRP Substrate (Millipore Corporation, Billerica, Mass.).
# [4] = tested on: hepatitis induced by concanavalin A; experiment: Liver tissue cytokine analysis (ELISA, RT-PCR) in Con A-induced hepatitis mice; format: in vivo, Balb/c mice
# Protocol: (§4) In order to confirm the preventive and therapeutic effects of hepatitis by 1-palmitoyl-2-linoleoyl-3-acetylglycerol (EC-18 or PLAG), the experiment was performed using an attenuation model of hepatitis induced by concanavalin A (hereinafter, referred to as ConA). As an experimental model, 10-week-old Balb/c mice (Koatech, Korea) were maintained under specific pathogen free (SPF) environment and used, and PLAG and PLG (ENZYCHEM Lifesciences, Korea) were prepared before or after in vivo or in vitro treatment. In addition, Hep3B, HepG2, EL-4 and HL-60 cell lines (American Type Culture Collection, ATCC) were incubated under 5% CO2 and a temperature of 37° C. The values in the comparison between groups performed in vivo were analyzed using one analysis method of the analysis of variance (ANOVA), and the values in the comparison of two experimental groups performed in vitro were analyzed using independent student's t test. Statistical significance was assumed to be p<0.05.
# (§5) Mice were randomly divided into three groups: control group, Con A-treated group, and PLAG-pretreated group. The Con A and PLAG were all dissolved in PBS (phosphate buffer saline) and used. PBS or PLAG was orally administered to the mice, and after 2 hours, 20 mg/kg BW of Con A was intravenously injected into each of the Con A-treated group and the PLAG-pretreated group. Thereafter, PLAG was orally administered to mice at a dose of 100 mg/kg BW. Here, BW means body weight.
# (§6) Blood samples were obtained from cardiac punctures 18 hours after administration of Con A in the mice of Example and centrifuged at 3,000 rpm for 10 minutes. For the measurement of cytokines in liver tissue ligate liquids, the animals were sacrificed and the liver was washed with PBS. The liver was homogenized and filtered using a 70 μm mesh cell strainer (BD Falcon cell strainer, BD Biosciences, Bedford, Mass.) in PBS. The supernatant was also collected by centrifugation at a rate of 2,000 rpm for 5 minutes. The lower cell pellet was resuspended in PBS and analyzed for complete blood cell count (CBC). Plasma samples and supernatants of liver lysate were maintained at minus 20° C. until cytokines were measured. The concentrations of IL-6, IL-10, IL-4, MIP-2 and IFNγ were detected using Set ELISA.
# (§7) Total RNA was isolated from the liver homogenate with TRIzol reagent (Incitrogen, Carlsbad, Calif.). HL-60 cells were plated in 12-well plates (1×10^6/well) and treated in the same manner as in Experimental Example 4. cDNA was synthesized from total cellular RNA using M-MLV reverse transcriptase and oligo-dT (Promega, Madison, Wis.).
# (§8) The amount of cDNA amplification of the reaction samples was confirmed by 2% agarose gel (Roche Applied Science, Salt Lake City, Utah) electrophoresis.
# HL-60 cells [5] = experiment: RT-PCR analysis of IL-8 and VCAM-1 expression in IL-4-stimulated HL-60 cells; format: cell-based, human; conditions: HL-60 cells stimulated by IL-4, RT-PCR, dose-dependent
# Protocol: as §7, §8
# [6] = tested on: hepatitis induced by concanavalin A; experiment: Hematological analysis (CBC) of whole blood and liver samples; format: in vivo, Balb/c mice; conditions: PLAG additionally administered
# Protocol: as §4, with “Statistical significance was assumed to be p<0.05.” left out
# Whole blood and liver samples were collected from the mice of Example 1 18 hours after administration of Con A. The cleaved liver collected from the mouse was homogenized as described in Experimental Example 1. Complete blood count (CBC) analysis included whole white blood cell quantification, part of neutrophils and lymphocytes of whole white blood cells, and hematology analysis was performed using Mindray BC 5300 (Shenzhen Mindray Bio-medical Electronics, China).
# HL-60 cells [7] = experiment: Neutrophil adsorption analysis on fibronectin; format: cell-based; conditions: 100, 10, and 1 ug/mL of PLAG; 10 ng/ml of IL-4; WST-1 assay and cell number
# From the text: In order to determine the effect of PLAG on neutrophil adsorption of fibronectin, 24-well tissue culture plates were coated with fibronectin as in previous studies (Wang Y H, Wang W Y, Liao J F, Chen C F, Hou Y C, Liou K T, Chou Y C, et al. Prevention of macrophage adhesion molecule-1 (Mac-1)-dependent neutrophil firm adhesion by taxifolin through impairment of protein kinase-dependent NADPH oxidase activation and antagonism of G protein-mediated calcium influx. Biochem Pharmacol 2004; 67:2251-2262.). The plates were incubated with 25 ug/ml of fibronectin at 37° C. for 2 hours. The unbounded protein was removed by washing, neutrophils were pre-treated with PLAG 2 hours before the experiment, and neutrophil activity was performed with IL-4 for 4 hours. Non-adsorbed neutrophils were eluted by aspiration and washed twice with PBS. Attached neutrophils were determined by calculating the number of cells at the bottom of each well using a homocytometer. The remaining adsorbed cells were stored in an incubator for 18 hours, at which time the cells were exposed to WST-1 reagent (Roche Applied Science) for spectrometric evaluation.
# PKCα/β = experiment: Western blot assay, phospho-PKC isotypes in HL-60 cells: PKCα/β; format: cell-based; conditions: IL-4 stimulation
# Protocol: as §3
# Hep3B cells = experiment: WST assay, cytotoxicity in Hep3B cells; format: cell-based; conditions: 24 hours of incubation, PLAG 1,000 ug/mL or greater
# Protocol: as §2
# PKCθ = experiment: Western blot assay, phospho-PKC isotypes in HL-60 cells: PKCθ; format: cell-based; conditions: IL-4 stimulation
# Protocol: as §3
# [8] = tested on: hepatitis induced by concanavalin A; experiment: Histological analysis of liver (hematoxylin-eosin, anti-neutrophil antibody staining); format: in vivo, Balb/c mice
# Protocol: as §4, §5
# The site of liver was collected from a mouse 8 hours after administration of Con A to the mouse of Example 1. The site of liver was fixed in 10% neutral buffered formalin, embedded in paraffin and cut to a thickness of 5 um. After removing the paraffin and rehydration, the flakes were stained with hematoxylin and eosin. In addition, for identification of neutrophils, the site of liver was stained with anti-mouse neutrophil antibody. All samples were evaluated histologically under a Leica (Leica, Wetzlar, Germany) optical microscope, and digital images were taken at ×200 magnification.
# [9] = tested on: hepatitis induced by concanavalin A; experiment: Plasma cytokine analysis (ELISA) in Con A-induced hepatitis mice; format: in vivo, Balb/c mice; conditions: Con A 20 mg/kg BW i.v., PLAG oral 100 mg/kg BW, blood 18 hours after Con A
# Protocol: as §4, §5, §6
# PKC-ξ/λ = experiment: Western blot assay, IL-4-induced PKC phosphorylation; format: cell-based; conditions: dose-dependent; 0.1, 1, 10, 100 ug/mL, 2 hours before IL-4 for 1 hour
# Protocol: as §1, §3
# [10] = ConA-administered mice, PLAG further administered, vs ConA group
# [11] = RT-PCR, ConA-induced liver tissue
structure (smiles),measurement,setting,value
"CCCCC/C=C\C/C=C\CCCCCCCC(=O)OC(CO)COC(=O)CCCCCCCCCCCCCCC (stereo not drawn) [PLG, reference compound]","phosphorylation of STAT6, comparison of PLAG and PLG",STAT6 [1],not altered
"CCCCC/C=C\C/C=C\CCCCCCCC(=O)OC(COC(C)=O)COC(=O)CCCCCCCCCCCCCCC (racemic) [PLAG, 1-palmitoyl-2-linoleoyl-3-acetyl-rac-glycerol]",STAT6 transcriptional activity,STAT6 [2],effectively prevented
same,survival of HL-60 cells,HL-60 cells [3],not affected
same,relaxation of the activity of PKCδ,PKCδ,affects the relaxation
same,expression of IL-4 (protein and mRNA) in liver tissue,[4]; [10],significantly reduced
same,expression of MIP-2 (protein and mRNA) in liver tissue,[4]; [10],significantly reduced
same,expression of CXCR4 mRNA in liver tissue,[4]; [11],down-regulates
same,expression of adsorbed molecules ICAM-1 and VCAM in liver tissue,[4]; [11],does not affect
same,expression of IL-8,HL-60 cells [5],effectively suppressed
same,expression of VCAM-1,HL-60 cells [5],effectively suppressed
same,circulating neutrophils in blood,[6]; CBC 18 hours after Con A,significantly increased
same,number of neutrophils present in the liver,[6]; CBC of liver homogenate 18 hours after Con A,significantly reduced
same,adsorption of HL-60 to coated fibronectin,HL-60 cells [7],significantly reduced
same,relaxation of PKCα/β activity,PKCα/β,did not affect
same,survival of Hep3B cells,Hep3B cells,not affected
same,relaxation of the activity of PKCθ,PKCθ,affects the relaxation
same,"phosphorylation of STAT6, comparison of PLAG and PLG",STAT6 [1],significantly reduced
same,phosphorylation of STAT6 induced by IL-4,"STAT6 [1]; dose-dependent, 0.1, 1, 10, 100 ug/mL, 2 hours before IL-4 for 1 hour",considerably alleviated
same,neutrophils in liver enhanced by stimulation with ConA,"[8]; anti-neutrophil antibody staining, liver 8 hours after Con A",effectively alleviated
same,"pathological changes of liver (hepatocyte damage, neutrophil infiltration, necrotic foci)","[8]; hematoxylin-eosin staining, PLAG 100 mg/kg, 8 hours after ConA i.v.",markedly reduced
same,liver cell damage,"[8]; liver 8 hours after Con A, immunohistological staining, vs ConA-treated liver tissue",hardly damaged
same,IL-4 in mouse plasma,[9]; vs Con A group,decreased
same,IL-6 in mouse plasma,[9]; vs Con A group,decreased
same,IL-10 in mouse plasma,[9]; vs Con A group,decreased
same,MIP-2 in mouse plasma,[9]; vs Con A group,decreased
same,concentration of IFNγ in plasma,[9]; vs mice not treated with PLAG,not significantly reduced
same,phosphorylation of PKC induced by IL-4,PKC-ξ/λ,considerably alleviated
